SMILES strings stand for the structures. pIC50: −log10 of the molar value. “And” between values parts separate entries of the source, which are not always exact repeats. Equal values may be shown once.

The results in this text go back to US7981903B2, “2-[2-{phenylamino}-1H-pyrrolo[2,3-D]pyrimidin-4-yl)amino] benzamide derivatives as IGF-1R inhibitors for the treatment of cancer” (GlaxoSmithKline LLC, priority 2007, dated 2011).

In test [1] the target is T1, NIH-3T3 cells overexpressing human IR (Homo sapiens, UniProt P06213).
T1 construct: expressed in transfected cells; host or cells: NIH-3T3 (mouse fibroblasts)
T1 sequence (P06213 28-1382): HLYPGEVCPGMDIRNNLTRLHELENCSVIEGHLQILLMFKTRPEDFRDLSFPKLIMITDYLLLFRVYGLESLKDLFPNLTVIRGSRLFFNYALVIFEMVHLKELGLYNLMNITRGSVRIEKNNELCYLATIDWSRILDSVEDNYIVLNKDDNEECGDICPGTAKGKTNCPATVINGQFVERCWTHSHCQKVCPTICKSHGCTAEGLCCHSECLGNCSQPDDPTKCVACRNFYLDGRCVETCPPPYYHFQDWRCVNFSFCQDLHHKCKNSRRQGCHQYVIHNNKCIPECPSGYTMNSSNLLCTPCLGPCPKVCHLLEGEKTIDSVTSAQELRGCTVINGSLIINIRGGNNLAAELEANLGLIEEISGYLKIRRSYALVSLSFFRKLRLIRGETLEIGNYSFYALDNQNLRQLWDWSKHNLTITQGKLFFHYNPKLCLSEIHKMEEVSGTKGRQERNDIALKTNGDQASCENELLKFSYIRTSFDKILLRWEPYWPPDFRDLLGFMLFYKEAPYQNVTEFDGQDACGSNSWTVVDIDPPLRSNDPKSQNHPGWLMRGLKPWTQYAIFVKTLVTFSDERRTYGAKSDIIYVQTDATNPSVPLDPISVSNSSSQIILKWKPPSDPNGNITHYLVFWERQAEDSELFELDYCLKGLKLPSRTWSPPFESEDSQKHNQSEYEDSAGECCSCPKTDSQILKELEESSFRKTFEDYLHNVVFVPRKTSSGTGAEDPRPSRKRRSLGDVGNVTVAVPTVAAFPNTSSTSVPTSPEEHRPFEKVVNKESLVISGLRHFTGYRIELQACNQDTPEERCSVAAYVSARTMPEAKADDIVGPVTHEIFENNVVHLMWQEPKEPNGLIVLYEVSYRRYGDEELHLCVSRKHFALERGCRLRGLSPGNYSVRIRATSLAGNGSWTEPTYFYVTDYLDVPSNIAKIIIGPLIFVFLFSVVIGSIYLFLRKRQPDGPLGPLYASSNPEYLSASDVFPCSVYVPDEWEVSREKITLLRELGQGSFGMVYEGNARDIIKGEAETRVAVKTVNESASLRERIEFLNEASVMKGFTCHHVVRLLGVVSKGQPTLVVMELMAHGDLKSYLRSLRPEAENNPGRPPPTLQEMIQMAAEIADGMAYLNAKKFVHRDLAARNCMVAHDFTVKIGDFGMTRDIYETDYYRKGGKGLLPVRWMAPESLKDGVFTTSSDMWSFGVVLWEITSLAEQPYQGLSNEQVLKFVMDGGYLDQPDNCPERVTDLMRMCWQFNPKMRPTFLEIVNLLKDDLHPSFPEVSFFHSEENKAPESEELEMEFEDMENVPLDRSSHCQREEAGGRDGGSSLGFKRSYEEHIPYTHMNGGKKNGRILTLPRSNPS
As to the kind of experiment: IR cellular autophosphorylation (DELFIA). The format is cell-based. As to conditions: 2 h compound, insulin 3 ug/ml for 15 minutes, IC50 category. A digest of the protocol: (§1)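 Receptor autophosphorylation measured by DELFIA, capturing IGF-1R or IRβ and detecting with europium anti-pTyr, reported as percent of IGF-1- or insulin-stimulated signal. Compounds (30 uM to 1.5 nM) added 2 h before ligand, then 15 min stimulation (IGF-1 30 ng/ml or insulin 3 ug/ml).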

In the next test the target is T2, human IR (hIR) (Homo sapiens, UniProt P06213).
T2 construct: containing amino acid residues 979-1382 of human IR; made in house; host or cells: Sf9 cells (baculovirus), same process as hIGF1R
T2 sequence (P06213 979-1382): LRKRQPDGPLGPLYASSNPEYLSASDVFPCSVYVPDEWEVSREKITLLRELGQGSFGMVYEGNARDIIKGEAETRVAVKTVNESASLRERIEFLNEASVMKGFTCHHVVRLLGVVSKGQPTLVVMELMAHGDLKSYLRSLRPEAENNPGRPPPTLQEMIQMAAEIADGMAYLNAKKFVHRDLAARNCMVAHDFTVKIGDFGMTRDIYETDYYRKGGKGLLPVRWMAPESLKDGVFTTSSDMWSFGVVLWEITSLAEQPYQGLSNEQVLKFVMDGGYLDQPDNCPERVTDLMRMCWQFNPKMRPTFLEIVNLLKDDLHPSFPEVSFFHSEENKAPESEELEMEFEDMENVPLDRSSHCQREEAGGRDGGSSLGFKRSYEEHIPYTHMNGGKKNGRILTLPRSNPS
Kind of test: TR-FRET kinase assay of purified hIR. The format is biochemical. The settings on record: activated hIR 0.5 nM, 10 μM ATP, values given as pIC50 category. A general note: Time-resolved FRET reads energy transfer from a long-lived donor to a nearby acceptor.

The next test deals with ALK (Homo sapiens, UniProt Q9UM73). As to the kind of experiment: ALK enzyme assay (HTRF). The format is biochemical. As to conditions: 0.25 nM ALK, 15.0 μM ATP, values given as pIC50 category. A digest of the protocol: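 Final compound range 0.00017 to 10 μM (twelve 1:3 dilutions). Kinase reaction with ATP and biotinylated synthetic peptide runs 120 min at 20° C, stopped with EDTA; phosphotyrosine detected by HTRF after 60 min. Inhibition referenced to DMSO (1%) and EDTA (0.1 M) controls, curve-fitted.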
Chain of ALK (Q9UM73 19-1620): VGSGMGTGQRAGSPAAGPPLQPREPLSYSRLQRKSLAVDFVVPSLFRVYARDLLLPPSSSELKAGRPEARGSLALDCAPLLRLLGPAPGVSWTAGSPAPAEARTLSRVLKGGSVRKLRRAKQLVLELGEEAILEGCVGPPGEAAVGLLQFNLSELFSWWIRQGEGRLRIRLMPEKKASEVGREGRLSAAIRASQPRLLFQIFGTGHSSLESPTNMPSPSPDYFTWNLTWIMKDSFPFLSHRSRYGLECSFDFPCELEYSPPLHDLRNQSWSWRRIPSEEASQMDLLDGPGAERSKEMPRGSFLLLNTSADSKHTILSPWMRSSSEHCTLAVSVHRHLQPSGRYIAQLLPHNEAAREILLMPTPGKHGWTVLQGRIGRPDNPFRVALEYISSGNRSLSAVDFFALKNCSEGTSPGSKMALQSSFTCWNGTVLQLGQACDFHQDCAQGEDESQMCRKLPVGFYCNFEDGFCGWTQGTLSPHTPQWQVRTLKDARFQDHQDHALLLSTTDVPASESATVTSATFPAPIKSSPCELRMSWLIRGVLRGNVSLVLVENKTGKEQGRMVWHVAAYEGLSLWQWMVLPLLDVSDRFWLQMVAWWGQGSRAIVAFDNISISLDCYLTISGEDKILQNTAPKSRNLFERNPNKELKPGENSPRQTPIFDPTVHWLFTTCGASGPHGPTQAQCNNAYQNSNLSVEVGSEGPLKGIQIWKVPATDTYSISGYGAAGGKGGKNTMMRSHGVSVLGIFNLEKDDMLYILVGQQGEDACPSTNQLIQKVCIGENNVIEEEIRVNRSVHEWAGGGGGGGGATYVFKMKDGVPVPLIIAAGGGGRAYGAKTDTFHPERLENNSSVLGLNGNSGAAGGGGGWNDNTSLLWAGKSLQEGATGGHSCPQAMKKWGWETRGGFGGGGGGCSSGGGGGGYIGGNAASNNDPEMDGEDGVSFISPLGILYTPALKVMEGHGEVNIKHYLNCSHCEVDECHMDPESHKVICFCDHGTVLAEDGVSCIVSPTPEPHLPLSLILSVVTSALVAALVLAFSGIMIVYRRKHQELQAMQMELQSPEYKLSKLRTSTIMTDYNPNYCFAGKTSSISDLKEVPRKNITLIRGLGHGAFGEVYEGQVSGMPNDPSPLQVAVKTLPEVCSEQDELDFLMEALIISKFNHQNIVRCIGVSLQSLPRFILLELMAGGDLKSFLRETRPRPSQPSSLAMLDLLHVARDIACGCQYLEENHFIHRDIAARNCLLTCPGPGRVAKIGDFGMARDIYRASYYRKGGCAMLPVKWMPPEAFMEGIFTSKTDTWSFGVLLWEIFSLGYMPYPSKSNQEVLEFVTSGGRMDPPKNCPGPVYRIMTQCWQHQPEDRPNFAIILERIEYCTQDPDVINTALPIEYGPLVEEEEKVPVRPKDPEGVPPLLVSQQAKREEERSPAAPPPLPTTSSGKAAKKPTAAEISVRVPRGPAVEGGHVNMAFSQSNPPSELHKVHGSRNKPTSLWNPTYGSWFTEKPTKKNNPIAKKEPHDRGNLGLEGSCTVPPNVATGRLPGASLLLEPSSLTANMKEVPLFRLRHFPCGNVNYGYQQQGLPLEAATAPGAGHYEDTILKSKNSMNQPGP

For test [2], the target named is T3, NIH-3T3 cells overexpressing human IGF-1R (Homo sapiens, UniProt P08069).
T3 construct: expressed in transfected cells; host or cells: NIH-3T3 (mouse fibroblasts)
T3 sequence (P08069 31-1367): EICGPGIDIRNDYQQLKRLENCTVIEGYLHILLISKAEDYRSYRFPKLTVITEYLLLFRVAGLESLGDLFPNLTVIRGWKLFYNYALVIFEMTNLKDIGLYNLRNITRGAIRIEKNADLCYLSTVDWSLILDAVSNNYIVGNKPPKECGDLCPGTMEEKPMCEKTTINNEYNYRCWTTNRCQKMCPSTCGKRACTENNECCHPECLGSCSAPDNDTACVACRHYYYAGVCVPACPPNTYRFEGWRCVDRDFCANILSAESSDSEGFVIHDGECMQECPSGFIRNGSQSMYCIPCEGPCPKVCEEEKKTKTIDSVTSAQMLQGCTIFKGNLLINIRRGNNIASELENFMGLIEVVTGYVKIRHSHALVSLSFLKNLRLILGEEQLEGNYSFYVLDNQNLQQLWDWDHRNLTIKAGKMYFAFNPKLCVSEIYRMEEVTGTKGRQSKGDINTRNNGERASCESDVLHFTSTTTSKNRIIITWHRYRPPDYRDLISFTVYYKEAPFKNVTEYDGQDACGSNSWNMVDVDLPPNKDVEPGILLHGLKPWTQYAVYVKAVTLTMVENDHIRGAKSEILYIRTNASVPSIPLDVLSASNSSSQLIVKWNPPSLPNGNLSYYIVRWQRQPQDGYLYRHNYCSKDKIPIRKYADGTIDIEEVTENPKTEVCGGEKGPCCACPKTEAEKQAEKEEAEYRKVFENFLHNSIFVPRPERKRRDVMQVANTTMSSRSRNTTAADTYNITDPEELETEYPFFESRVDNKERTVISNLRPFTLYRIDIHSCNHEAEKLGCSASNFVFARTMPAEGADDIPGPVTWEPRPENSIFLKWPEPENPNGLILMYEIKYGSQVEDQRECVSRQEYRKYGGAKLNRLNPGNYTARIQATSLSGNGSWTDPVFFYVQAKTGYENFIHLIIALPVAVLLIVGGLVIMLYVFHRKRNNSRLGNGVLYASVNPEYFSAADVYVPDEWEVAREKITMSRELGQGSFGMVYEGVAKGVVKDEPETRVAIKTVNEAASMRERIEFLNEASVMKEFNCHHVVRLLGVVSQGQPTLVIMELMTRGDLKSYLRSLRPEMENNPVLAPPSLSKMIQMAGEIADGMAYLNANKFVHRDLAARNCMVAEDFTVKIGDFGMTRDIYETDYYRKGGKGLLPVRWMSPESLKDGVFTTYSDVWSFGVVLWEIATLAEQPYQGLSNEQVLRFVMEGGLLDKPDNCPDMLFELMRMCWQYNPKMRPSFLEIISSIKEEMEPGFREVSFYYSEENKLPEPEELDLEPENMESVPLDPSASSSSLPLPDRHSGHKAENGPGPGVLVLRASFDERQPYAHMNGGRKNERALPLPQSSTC
Kind of test: IGF-1R cellular autophosphorylation (DELFIA). In kind it is cell-based. In short, it runs like this:
as §1

`COc1cc2c(cc1Nc1nc(Nc3cc(F)cc(F)c3C(=O)NC(C)C)c3cc[nH]c3n1)N(C(=O)CN(C)C)CC2` [Example 153, 2-[(2-{[1-(N,N-dimethylglycyl)-5-(methyloxy)-2,3-dihydro-1H-indol-6-yl]amino}-1H-pyrrolo[2,3-d]pyrimidin-4-yl)amino]-4,6-difluoro-N-(1-methylethyl)benzamide]: the negative logarithm of the IC50 (pIC50) (usually the negative decadic logarithm of the IC50, by convention in mol/L) in test [1] is less than 6.30; against human IR (hIR), 8.40 to 8.90; on ALK, 9.00 to 9.60; in test [2] it was 6.30 to 7.00.

For `COc1cc2c(cc1Nc1nc(Nc3cc(F)cc(F)c3C(=O)NCC(C)C)c3cc[nH]c3n1)N(C(=O)CN(C)C)CC2` [Example 154, 2-[(2-{[1-(N,N-dimethylglycyl)-5-(methyloxy)-2,3-dihydro-1H-indol-6-yl]amino}-1H-pyrrolo[2,3-d]pyrimidin-4-yl)amino]-4,6-difluoro-N-(2-methylpropyl)benzamide], the negative logarithm of the IC50 (pIC50) in test [1] is less than 6.30; against human IR (hIR), 8.40 to 8.90; at ALK it was 8.40 to 8.90; in test [2], 6.30 to 7.00.

In the case of `COc1cc2c(cc1Nc1nc(Nc3cc(F)cc(F)c3C(=O)NCc3ccc(F)cc3)c3cc[nH]c3n1)N(C(=O)CN(C)C)CC2` [Example 155, 2-[(2-{[1-(N,N-dimethylglycyl)-5-(methyloxy)-2,3-dihydro-1H-indol-6-yl]amino}-1H-pyrrolo[2,3-d]pyrimidin-4-yl)amino]-4,6-difluoro-N-[(4-fluorophenyl)methyl]benzamide], the pIC50 in test [1] is 6.30 to 7.00; against human IR (hIR), 8.40 to 8.90; at ALK, 6.70 to 8.30; in test [2], 6.30 to 7.00.

For `CCCNC(=O)c1c(F)cccc1Nc1nc(Nc2cc3c(cc2OC)CCN3C(=O)CN(C)C)nc2[nH]ccc12` [Example 156, 2-[(2-{[1-(N,N-dimethylglycyl)-5-(methyloxy)-2,3-dihydro-1H-indol-6-yl]amino}-1H-pyrrolo[2,3-d]pyrimidin-4-yl)amino]-6-fluoro-N-propylbenzamide], the pIC50 in test [1] was 6.30 to 7.00; against human IR (hIR), 8.40 to 8.90; against ALK it was 9.00 to 9.60; in test [2], 6.30 to 7.00.

As for `COc1cc2c(cc1Nc1nc(Nc3cccc(F)c3C(=O)NCC(C)C)c3cc[nH]c3n1)N(C(=O)CN(C)C)CC2` [Example 157, 2-[(2-{[1-(N,N-dimethylglycyl)-5-(methyloxy)-2,3-dihydro-1H-indol-6-yl]amino}-1H-pyrrolo[2,3-d]pyrimidin-4-yl)amino]-6-fluoro-N-(2-methylpropyl)benzamide], the negative-log IC50 (pIC50) in test [1] was 6.30 to 7.00; against human IR (hIR) it was 8.40 to 8.90; against ALK, 8.40 to 8.90; in test [2], 6.30 to 7.00.

In the case of `COc1cc2c(cc1Nc1nc(Nc3cccc(F)c3C(=O)NC(C)C)c3cc[nH]c3n1)N(C(=O)CN(C)C)CC2` [Example 158, 2-[(2-{[1-(N,N-dimethylglycyl)-5-(methyloxy)-2,3-dihydro-1H-indol-6-yl]amino}-1H-pyrrolo[2,3-d]pyrimidin-4-yl)amino]-6-fluoro-N-(1-methylethyl)benzamide], the pIC50 in test [1] is less than 6.30; against human IR (hIR), 8.40 to 8.90; against ALK it was 9.00 to 9.60; in test [2], 6.30 to 7.00.

For the compound `COc1cc2c(cc1Nc1nc(Nc3ccc(F)c(F)c3C(N)=O)c3cc[nH]c3n1)N(C(=O)CN(C)C)CCC2` [Example 162, 6-[(2-{[1-(N,N-dimethylglycyl)-6-(methyloxy)-1,2,3,4-tetrahydro-7-quinolinyl]amino}-1H-pyrrolo[2,3-d]pyrimidin-4-yl)amino]-2,3-difluorobenzamide], the negative logarithm of the IC50 (pIC50) is greater than 7.00 in test [1], 9.00 to 9.60 against human IR (hIR), 8.40 to 8.90 on ALK and greater than 7.00 in test [2].

Consider `CNC(=O)c1c(Nc2nc(Nc3cc4c(cc3OC)CCCN4C(=O)CN(C)C)nc3[nH]ccc23)ccc(F)c1F` [Example 163, 6-[(2-{[1-(N,N-dimethylglycyl)-6-(methyloxy)-1,2,3,4-tetrahydro-7-quinolinyl]amino}-1H-pyrrolo[2,3-d]pyrimidin-4-yl)amino]-2,3-difluoro-N-methylbenzamide], for which the pIC50 in test [1] was greater than 7.00; against human IR (hIR) it was 8.40 to 8.90; against ALK, 8.40 to 8.90; in test [2], greater than 7.00.

With `CCN(C)CC(=O)N1CCc2cc(OC)c(Nc3nc(Nc4cccc(F)c4C(N)=O)c4cc[nH]c4n3)cc21` [Example 166, 2-[(2-{[1-(N-ethyl-N-methylglycyl)-5-(methyloxy)-2,3-dihydro-1H-indol-6-yl]amino}-1H-pyrrolo[2,3-d]pyrimidin-4-yl)amino]-6-fluorobenzamide], the pIC50 is greater than 7.00 in test [1], 8.40 to 8.90 at human IR (hIR), 8.40 to 8.90 on ALK and greater than 7.00 in test [2].

Regarding `CCCN(C)CC(=O)N1CCc2cc(OC)c(Nc3nc(Nc4cccc(F)c4C(=O)NC)c4cc[nH]c4n3)cc21` [Example 167, 2-fluoro-N-methyl-6-[(2-{[5-(methyloxy)-1-(N-methyl-N-propylglycyl)-2,3-dihydro-1H-indol-6-yl]amino}-1H-pyrrolo[2,3-d]pyrimidin-4-yl)amino]benzamide], the pIC50 in test [1] is 6.30 to 7.00; against human IR (hIR), 8.40 to 8.90; against ALK, 8.40 to 8.90 and 9.00 to 9.60; in test [2] it was 6.30 to 7.00.

Consider `CNC(=O)c1c(F)cc(Cl)cc1Nc1nc(Nc2cc3c(cc2OC)CCCN3C(=O)CN2CCCC2)nc2[nH]ccc12` [Example 174, 4-chloro-2-fluoro-N-methyl-6-[(2-{[6-(methyloxy)-1-(1-pyrrolidinylacetyl)-1,2,3,4-tetrahydro-7-quinolinyl]amino}-1H-pyrrolo[2,3-d]pyrimidin-4-yl)amino]benzamide], for which the pIC50 was 6.30 to 7.00 in test [1], 8.40 to 8.90 against human IR (hIR), 8.40 to 8.90 on ALK and 6.30 to 7.00 in test [2].

For `CCN(CCO)CC(=O)N1CCc2cc(OC)c(Nc3nc(Nc4cccc(F)c4C(N)=O)c4cc[nH]c4n3)cc21` [Example 177, 2-[(2-{[1-[N-ethyl-N-(2-hydroxyethyl)glycyl]-5-(methyloxy)-2,3-dihydro-1H-indol-6-yl]amino}-1H-pyrrolo[2,3-d]pyrimidin-4-yl)amino]-6-fluorobenzamide], the pIC50 in test [1] was 6.30 to 7.00; against human IR (hIR) it was 8.40 to 8.90; at ALK, 8.40 to 8.90; in test [2], 6.30 to 7.00.

Regarding `COc1cc2c(cc1Nc1nc(Nc3cccc(F)c3C(N)=O)c3cc[nH]c3n1)CCN2C(=O)CN(C)C` [Example 197, 2-[(2-{[1-(N,N-dimethylglycyl)-6-(methyloxy)-2,3-dihydro-1H-indol-5-yl]amino}-1H-pyrrolo[2,3-d]pyrimidin-4-yl)amino]-6-fluorobenzamide], the negative-log IC50 (pIC50) in test [1] was less than 6.30; against human IR (hIR), 9.00 to 9.60; against ALK, 8.40 to 8.90; in test [2], 6.30 to 7.00.

In the case of `CNC(=O)c1c(F)cccc1Nc1nc(Nc2cc3c(cc2OC)N(C(=O)CN(C)C)CC3)nc2[nH]ccc12` [Example 198, 2-[(2-{[1-(N,N-dimethylglycyl)-6-(methyloxy)-2,3-dihydro-1H-indol-5-yl]amino}-1H-pyrrolo[2,3-d]pyrimidin-4-yl)amino]-6-fluoro-N-methylbenzamide], the negative-log IC50 (pIC50) was less than 6.30 in test [1], 8.40 to 8.90 against human IR (hIR), 8.40 to 8.90 on ALK and less than 6.30 in test [2].
